According to patent US20020183277A1, “Combination of vitamin D analogue and pyrimidine nucleoside analogue” (priority 2001, published 2002):

Columns and labels:
[1] = tested on: cytidine deaminase in HL60 cells; settings: human promyeolytic cell line HL60; cited from earlier work
[2] = tested on: thymidine phosphorylase activity in FHC cells; test: thymidine phosphorylase activity in FHC cells; format: cell-based, human; settings: continuous exposure, period of 11 days, control 0.25±0.04 nmol/min/mg
Description: (§1) The thymidine phosphorylase activity was determined by measuring the conversion of radiolabelled thymidine to thymine. The assay method used was a slight modification of the method described in T. Sumizawa et al., “Thymidine Phosphorylase Activity Associated with Platelet-Derived Endothelial Cell Growth Factor”, J. Biochem. 114, 1993, pp. 9-14, which is hereby incorporated by reference.
(§2) The effect of administration of 1α, 25-dihydroxyvitamin D3 or seocalcitol (EB 1089) on growth of FHC cells was investigated. FHC cells are normal human colon epithelial cells (ATCC CRL-1831) considered to be a good model of normal human colon epithelium. The cells were grown in a culture medium supplemented with 10^−7 M 1α,25-dihydroxyvitamin D3 or seocalcitol for 14 days.
Similarly, cytidine deaminase and thymidine phosphorylase activity in FHC cells following continuous exposure to 1α,25-dihydroxyvitamin D3 or seocalcitol was determined as described in example 1. The cytidine deaminase and thymidine phosphorylase activity in control cells remained constant at 0.07±0.03 and 0.25±0.04 nmol/min/mg, respectively, over a period of 11 days and was unaffected by the presence of 1α,25-dihydroxyvitamin D3 or seocalcitol.

[3] = tested on: cytidine deaminase (CDA) activity in HT-29 cells; test: cytidine deaminase activity in extracts of treated HT-29 cells; format: cell-based, human; settings: 10^-7 M; for increase in cytidine deaminase activity: incubation at day 1 for 24 hours, versus isopropanol control
Description: (§3) HT-29 cells (a human colon cancer cell line) were grown in medium to which was added 0.0025% isopropanol as control, 10^−7 M 1α, 25-dihydroxyvitamin D3 or 10^−7 M seocalcitol, respectively. The medium was changed on days 1, 4, 6, 8, 11 and 13, each time with addition of isopropanol, 1α, 25-dihydroxyvitamin D3 or seocalcitol, as appropriate.
(§4) On each of the indicated days, cells from each culture were harvested, pelleted and frozen. For the cytidine deaminase and thymidine phosphorylase assays, the frozen cell pellet was thawed and resuspended in 150 μl of 0.1 M Tris-Hcl, pH 8.1. The cell suspension was sonicated for 2-5 seconds and centrifuged at 20000×g for 20 minutes at 4° C. 100 μl of cell extract was transferred to Eppendorf tubes containing 0.5 μl 1M DTT.
(§5) The cytidine deaminase activity in the cell extracts was determined by measuring the conversion of radiolabelled cytidine to […] and uracil. The assay is a combination of the methods described in J. Mejer and P. Nygaard, “Cytosine Arabinoside Phosphorylation and Deamination in Acute Myeloblastic Leukemia Cells”, Leukemia Research 2, 1978 pp. 127-131, and B. R. De Saint Vincent et al., “The Modulation of Thymidine Triphosphate Pool of Chinese Hamster Cells by dCMP Deaminase and UDP Reductase”, J. Biol. Chem. 255, 1980, pp. 162-167, which are hereby incorporated by reference.
The assay mixture has a total volume of 50 μl and the following composition:
2 μl ^3H-cytidine (18.2 Ci/mmol, 1 mCi/ml)
The substrate and products were separated on PEI-cellulose plates placed in about 1.5 cm of a mixture of isopropanol:water:ethyl acetate 41:22:117.

[4] = tested on: cytidine deaminase activity in FHC cells; test: cytidine deaminase activity in FHC cells; format: cell-based, human; settings: continuous exposure, period of 11 days, control 0.07±0.03 nmol/min/mg
Description: as §5, §2
Similarly, cytidine deaminase and thymidine phosphorylase activity in FHC cells following continuous exposure to 1α,25-dihydroxyvitamin D3 or seocalcitol was determined as described in example 1. […]

FHC cells = test: growth of FHC cells; format: cell-based; settings: normal human colon epithelial cells, 10^-7 M, 14 days
Description: as §2

[5] = tested on: thymidine phosphorylase (TP) activity in HT-29 cells; test: thymidine phosphorylase activity in extracts of treated HT-29 cells; format: cell-based, human; settings: 10^-7 M; for thymidine phosphorylase activity: at day 11 (control 0.395±0.062); for thymidine phosphorylase activity compared to isopropanol-treated cells: first 5 days
Description: as §3, §4, §1
10 μl 50 mM sodium phosphate, pH 7.0
10 μl mM Tris-HCl, pH 7.6
2 μl ^3H-thymidine (5 Ci/mmol, 1 mCi/ml)
The substrate and product were separated on PEI-cellulose plates placed in about 1.5 cm of water.

cytidine deaminase gene = settings: HL60, WiDr, Colo 201, Colo 205, CXF 280, DLD-1, MKN 45, MKN 1, MKN 28 and A549 cells; cited from earlier work
solid tumours = settings: clinical efficacy, limited by dose-limiting toxicity; cited from earlier work
[6] = tested on: estrogen receptor-negative MDA-MB-231 tumours; settings: in combination with doxifluridine, MDA-MB-231 tumours in athymic mice; cited from earlier work
[7] = tested on: cell growth and enzymatic activity; test: 2 hours versus continuous exposure (previous experiment); format: cell-based; settings: 10^-7 M
[8] = after 8 days of incubation, p<0.0001

## C=C1/C(=C\C=C2/CCC[C@]3(C)[C@@H]([C@H](C)CCCC(C)(C)O)CC[C@@H]23)C[C@@H](O)C[C@@H]1O [1α,25-dihydroxyvitamin D3]
[1]
  cytidine deaminase in HL60 cells: causes an increase
[2]
  thymidine phosphorylase activity in FHC cells: unaffected
[3]; [8]
  maximum increase in cytidine deaminase activity: 15.5 fold
[3]
  increase in cytidine deaminase activity: 4.5 fold
[4]
  cytidine deaminase activity in FHC cells: unaffected
FHC cells
  growth of FHC cells compared to untreated control cells: not significantly affected
[5]
  thymidine phosphorylase activity: 0.323 nmol/min/mg
  thymidine phosphorylase activity compared to isopropanol-treated cells: the same as in isopropanol-treated cells
Cytidine deaminase gene
  expression of the cytidine deaminase gene: upregulates

## O=c1[nH]cc(F)c(=O)[nH]1 [5-FU, 5-fluorouracil]
Solid tumours
  overall response rate: 10-30%

## C=C1/C(=C\C=C2/CCC[C@]3(C)[C@@H]([C@H](C)OCCC(C)(C)O)CC[C@@H]23)C[C@@H](O)C[C@@H]1O [22-oxacalcitriol]
[6]
  effect of combination treatment versus 22-oxacalcitriol alone: did not exceed that of treatment with 22-oxacalcitriol alone

## C=C1/C(=C\C=C2/CCC[C@]3(C)[C@@H]([C@H](C)/C=C/C=C/C(O)(CC)CC)CC[C@@H]23)C[C@@H](O)C[C@@H]1O [seocalcitol]
[2]
  thymidine phosphorylase activity in FHC cells: unaffected
[3]; [8]
  increase in cytidine deaminase activity relative to that observed for 1α,25-dihydroxyvitamin D3: twice
[3]
  increase in cytidine deaminase activity: 4.9 fold
[4]
  cytidine deaminase activity in FHC cells: unaffected
FHC cells
  growth of FHC cells compared to untreated control cells: not significantly affected
[7]
  effect on cell growth and enzymatic activity of 2 hours of exposure versus continuous exposure: equivalent effect
[5]
  thymidine phosphorylase activity: 0.672 nmol/min/mg
  thymidine phosphorylase activity compared to isopropanol-treated cells: the same as in isopropanol-treated cells
